Results from article PMC7206119, “RIP1 inhibition blocks inflammatory diseases but not tumor growth or metastases” (Cell Death and Differentiation, 2019).

What was measured:
Assay in all cases: biochemical
Set-up in all cases: DiscoverX kinase panel, active-site competition binding (KINOMEscan type), percent of control at one concentration
Conditions in all cases: competition binding, percent of control
PIP5K2C = target: T1, PIP5K2C (Homo sapiens, UniProt Q8TBX8)
T1 construct: gene PIP4K2C

EGFR(T790M) = EGFR(T790M) (Homo sapiens, UniProt P00533, T790M)
YSK4 = target: T2, YSK4 (Homo sapiens, UniProt Q56UN5)
T2 construct: gene MAP3K19

PIK3CA(E545K) = PIK3CA(E545K) (Homo sapiens, UniProt P42336, E545K)
PIK3CA(E545K), sequence (P42336 whole entry E545K): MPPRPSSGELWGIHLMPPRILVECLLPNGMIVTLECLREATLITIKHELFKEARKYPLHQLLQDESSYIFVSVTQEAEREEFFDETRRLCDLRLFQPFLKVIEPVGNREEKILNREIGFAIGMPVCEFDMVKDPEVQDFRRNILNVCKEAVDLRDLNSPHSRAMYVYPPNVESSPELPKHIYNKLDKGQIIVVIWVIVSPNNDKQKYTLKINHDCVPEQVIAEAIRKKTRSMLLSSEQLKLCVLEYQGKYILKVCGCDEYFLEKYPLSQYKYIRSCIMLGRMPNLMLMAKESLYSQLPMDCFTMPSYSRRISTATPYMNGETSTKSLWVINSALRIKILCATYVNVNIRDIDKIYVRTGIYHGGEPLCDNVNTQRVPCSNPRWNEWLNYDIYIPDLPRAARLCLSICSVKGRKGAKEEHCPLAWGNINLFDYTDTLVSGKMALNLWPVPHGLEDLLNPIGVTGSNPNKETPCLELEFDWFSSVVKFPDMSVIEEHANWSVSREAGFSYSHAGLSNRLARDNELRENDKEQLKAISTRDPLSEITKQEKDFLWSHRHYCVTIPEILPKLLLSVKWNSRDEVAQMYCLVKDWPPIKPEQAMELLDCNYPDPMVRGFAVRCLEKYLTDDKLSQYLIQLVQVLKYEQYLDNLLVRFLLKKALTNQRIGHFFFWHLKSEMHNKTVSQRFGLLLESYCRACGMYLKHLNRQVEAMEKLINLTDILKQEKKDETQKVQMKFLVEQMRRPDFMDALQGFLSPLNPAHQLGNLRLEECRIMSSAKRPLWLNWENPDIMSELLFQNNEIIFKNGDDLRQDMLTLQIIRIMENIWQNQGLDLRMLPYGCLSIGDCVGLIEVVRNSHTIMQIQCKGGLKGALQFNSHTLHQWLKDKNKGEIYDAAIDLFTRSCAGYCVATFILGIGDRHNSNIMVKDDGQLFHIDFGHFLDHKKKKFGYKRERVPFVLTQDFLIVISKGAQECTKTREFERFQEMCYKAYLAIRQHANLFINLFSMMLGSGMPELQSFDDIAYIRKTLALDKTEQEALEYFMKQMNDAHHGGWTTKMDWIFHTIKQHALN

PKAC-beta = target: T3, PKAC-beta (Homo sapiens, UniProt P22694)
T3 construct: gene PRKACB

HIPK4 = HIPK4 (Homo sapiens, UniProt Q8NE63)
HIPK4, sequence (Q8NE63 whole entry): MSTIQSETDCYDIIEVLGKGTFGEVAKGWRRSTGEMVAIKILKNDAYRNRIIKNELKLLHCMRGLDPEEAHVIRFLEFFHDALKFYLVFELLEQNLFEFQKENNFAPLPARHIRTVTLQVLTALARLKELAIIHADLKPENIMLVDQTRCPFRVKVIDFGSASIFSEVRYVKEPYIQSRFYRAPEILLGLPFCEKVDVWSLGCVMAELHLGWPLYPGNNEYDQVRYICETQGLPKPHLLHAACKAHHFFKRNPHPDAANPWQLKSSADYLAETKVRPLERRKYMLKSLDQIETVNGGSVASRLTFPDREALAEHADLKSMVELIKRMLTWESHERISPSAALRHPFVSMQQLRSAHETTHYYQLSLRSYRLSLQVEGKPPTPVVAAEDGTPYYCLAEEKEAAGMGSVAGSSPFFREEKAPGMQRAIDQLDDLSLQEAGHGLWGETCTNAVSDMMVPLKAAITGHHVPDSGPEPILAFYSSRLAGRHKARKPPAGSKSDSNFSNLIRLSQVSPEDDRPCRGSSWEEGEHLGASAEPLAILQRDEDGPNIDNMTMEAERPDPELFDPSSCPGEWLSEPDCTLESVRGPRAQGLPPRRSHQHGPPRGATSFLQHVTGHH

FGFR3 = FGFR3 (Homo sapiens, UniProt P22607)
PAK4 = PAK4 (Homo sapiens, UniProt O96013)
PAK4, sequence (O96013 whole entry): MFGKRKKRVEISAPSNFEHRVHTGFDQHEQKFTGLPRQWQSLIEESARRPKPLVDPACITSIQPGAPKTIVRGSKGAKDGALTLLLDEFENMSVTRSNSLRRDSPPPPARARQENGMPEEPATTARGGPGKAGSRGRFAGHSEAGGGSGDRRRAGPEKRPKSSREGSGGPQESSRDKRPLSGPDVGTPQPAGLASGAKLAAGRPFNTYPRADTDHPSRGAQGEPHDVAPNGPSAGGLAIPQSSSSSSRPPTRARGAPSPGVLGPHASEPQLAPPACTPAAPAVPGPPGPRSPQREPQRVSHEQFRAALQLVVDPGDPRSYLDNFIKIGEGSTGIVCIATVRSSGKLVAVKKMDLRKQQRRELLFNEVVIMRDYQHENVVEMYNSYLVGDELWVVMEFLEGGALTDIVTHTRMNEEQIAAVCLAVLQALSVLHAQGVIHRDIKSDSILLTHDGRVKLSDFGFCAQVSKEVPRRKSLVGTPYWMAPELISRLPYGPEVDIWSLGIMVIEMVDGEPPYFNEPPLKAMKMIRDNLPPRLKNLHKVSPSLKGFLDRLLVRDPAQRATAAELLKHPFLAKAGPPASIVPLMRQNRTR

PIK3CA(Q546K) = PIK3CA(Q546K) (Homo sapiens, UniProt P42336, Q546K)
PIK3CA(Q546K), sequence (P42336 whole entry Q546K): as the sequence (P42336 whole entry E545K) above, with K545E, Q546K counted along it

ERN1 = ERN1 (Homo sapiens, UniProt O75460)
CDK3 = CDK3 (Homo sapiens, UniProt Q00526)
MYLK4 = MYLK4 (Homo sapiens, UniProt Q86YV6)
MYLK4, sequence (Q86YV6 whole entry): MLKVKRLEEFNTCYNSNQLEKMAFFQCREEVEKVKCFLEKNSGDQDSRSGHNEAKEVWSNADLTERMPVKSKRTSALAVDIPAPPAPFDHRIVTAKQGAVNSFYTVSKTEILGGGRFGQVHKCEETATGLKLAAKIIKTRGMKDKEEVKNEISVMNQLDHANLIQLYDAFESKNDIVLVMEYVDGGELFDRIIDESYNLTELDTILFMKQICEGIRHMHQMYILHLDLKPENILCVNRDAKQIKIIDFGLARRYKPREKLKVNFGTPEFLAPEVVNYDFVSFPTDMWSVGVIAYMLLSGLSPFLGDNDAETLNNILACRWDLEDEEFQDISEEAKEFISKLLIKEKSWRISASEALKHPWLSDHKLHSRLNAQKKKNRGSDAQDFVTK

PIK3CA(M1043I) = PIK3CA(M1043I) (Homo sapiens, UniProt P42336, M1043I)
PIK3CA(M1043I), sequence (P42336 whole entry M1043I): as the sequence (P42336 whole entry E545K) above, with K545E, M1043I counted along it

FYN = FYN (Homo sapiens, UniProt P06241)
FYN, sequence (P06241 whole entry): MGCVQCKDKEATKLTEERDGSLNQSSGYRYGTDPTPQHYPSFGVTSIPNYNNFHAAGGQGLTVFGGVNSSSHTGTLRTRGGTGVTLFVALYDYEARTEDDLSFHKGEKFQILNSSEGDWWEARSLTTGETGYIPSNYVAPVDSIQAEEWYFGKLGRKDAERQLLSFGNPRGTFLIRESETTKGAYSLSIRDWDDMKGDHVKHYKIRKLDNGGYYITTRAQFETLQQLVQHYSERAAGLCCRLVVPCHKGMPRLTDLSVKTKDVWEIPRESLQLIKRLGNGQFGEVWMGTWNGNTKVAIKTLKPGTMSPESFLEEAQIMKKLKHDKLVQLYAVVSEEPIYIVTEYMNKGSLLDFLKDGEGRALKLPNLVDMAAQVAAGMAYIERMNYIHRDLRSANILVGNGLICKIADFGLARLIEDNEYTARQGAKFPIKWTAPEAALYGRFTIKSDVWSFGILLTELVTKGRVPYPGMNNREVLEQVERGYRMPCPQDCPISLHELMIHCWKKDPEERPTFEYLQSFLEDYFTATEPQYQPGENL

YANK2 = target: T4, YANK2 (Homo sapiens, UniProt Q9NY57)
T4 construct: gene STK32B

[1] = target: T5, ABL1(H396P)-phosphorylated (Homo sapiens, UniProt P00519, H396P)
T5 construct: phosphorylated

SgK110 = target: T6, SgK110 (Homo sapiens, UniProt P0C264)
T6 construct: gene SBK3

PRKD2 = PRKD2 (Homo sapiens, UniProt Q9BZL6)
PRKR = target: T7, PRKR (Homo sapiens, UniProt P19525)
T7 construct: gene EIF2AK2
T7 sequence (P19525 whole entry): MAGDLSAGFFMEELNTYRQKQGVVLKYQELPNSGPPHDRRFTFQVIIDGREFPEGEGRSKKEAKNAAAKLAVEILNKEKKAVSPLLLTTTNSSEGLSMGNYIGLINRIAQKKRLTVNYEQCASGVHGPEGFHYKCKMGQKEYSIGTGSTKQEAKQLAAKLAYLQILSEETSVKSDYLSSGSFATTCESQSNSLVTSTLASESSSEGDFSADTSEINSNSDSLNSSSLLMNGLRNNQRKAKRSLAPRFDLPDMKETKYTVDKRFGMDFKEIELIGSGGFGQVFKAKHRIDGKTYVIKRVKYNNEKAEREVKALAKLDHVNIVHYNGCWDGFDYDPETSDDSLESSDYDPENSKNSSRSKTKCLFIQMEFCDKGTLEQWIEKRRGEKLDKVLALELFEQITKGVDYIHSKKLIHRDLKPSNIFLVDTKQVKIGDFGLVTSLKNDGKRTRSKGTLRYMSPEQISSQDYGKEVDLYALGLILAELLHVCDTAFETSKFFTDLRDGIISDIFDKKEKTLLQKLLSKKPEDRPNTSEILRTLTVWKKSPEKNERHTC

[2] = target: T8, RSK1(Kin.Dom.2-C-terminal) (Homo sapiens, UniProt Q15418)
T8 construct: gene RPS6KA1; Kin.Dom.2-C-terminal

CDK11 = target: T9, CDK11 (Homo sapiens, UniProt Q9BWU1)
T9 construct: gene CDK19
T9 sequence (Q9BWU1 whole entry): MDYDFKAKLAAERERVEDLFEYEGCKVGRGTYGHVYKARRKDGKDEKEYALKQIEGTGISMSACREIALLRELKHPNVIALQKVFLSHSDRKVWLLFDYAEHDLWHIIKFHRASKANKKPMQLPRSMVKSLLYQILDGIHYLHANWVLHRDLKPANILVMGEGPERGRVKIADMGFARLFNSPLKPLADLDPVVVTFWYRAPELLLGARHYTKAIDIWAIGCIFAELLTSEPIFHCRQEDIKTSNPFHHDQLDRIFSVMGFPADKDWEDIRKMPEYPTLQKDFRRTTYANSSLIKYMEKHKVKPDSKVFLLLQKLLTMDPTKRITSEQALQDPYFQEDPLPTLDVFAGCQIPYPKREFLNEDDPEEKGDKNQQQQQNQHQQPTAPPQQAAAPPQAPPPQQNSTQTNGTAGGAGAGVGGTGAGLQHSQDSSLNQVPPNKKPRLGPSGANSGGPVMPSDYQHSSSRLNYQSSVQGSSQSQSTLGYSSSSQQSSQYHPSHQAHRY

T1 sequence (Q8TBX8 whole entry): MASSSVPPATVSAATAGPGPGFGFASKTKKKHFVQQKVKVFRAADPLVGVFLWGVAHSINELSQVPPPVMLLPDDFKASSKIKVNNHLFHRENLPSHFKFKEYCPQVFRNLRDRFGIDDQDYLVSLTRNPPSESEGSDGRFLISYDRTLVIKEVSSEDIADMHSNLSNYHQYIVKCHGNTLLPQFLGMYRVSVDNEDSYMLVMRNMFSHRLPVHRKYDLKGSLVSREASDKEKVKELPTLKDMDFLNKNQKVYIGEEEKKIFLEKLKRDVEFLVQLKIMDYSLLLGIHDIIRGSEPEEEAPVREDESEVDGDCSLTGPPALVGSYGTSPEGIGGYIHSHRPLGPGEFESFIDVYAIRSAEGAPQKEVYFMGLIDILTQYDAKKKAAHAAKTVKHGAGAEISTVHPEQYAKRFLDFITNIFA

COc1cc2c(cn1)N(C)C(=O)[C@@H](NC(=O)c1nc3n(n1)[C@H](c1ccccc1)CC3)CC2 [GNE684, (S)-N-((S)-7-methoxy-1-methyl-2-oxo-2,3,4,5-tetrahydro-1H-pyrido[3,4-b]azepin-3-yl)-5-phenyl-6,7-dihydro-5H-pyrrolo[1,2-b][1,2,4]triazole-2-carboxamide]
remaining binding at 10 µM (PIP5K2C): 76% | remaining binding at 10 µM (EGFR(T790M)): 100% | remaining binding at 10 µM (YSK4): 92% | remaining binding at 10 µM (PIK3CA(E545K)): 55% | remaining binding at 10 µM (PKAC-beta): 72% | remaining binding at 10 µM (HIPK4): 100% | remaining binding at 10 µM (FGFR3): 100% | remaining binding at 10 µM (PAK4): 93% | remaining binding at 10 µM (PIK3CA(Q546K)): 49% | remaining binding at 10 µM (ERN1): 97% | remaining binding at 10 µM (CDK3): 74% | remaining binding at 10 µM (MYLK4): 100% | remaining binding at 10 µM (PIK3CA(M1043I)): 99% | remaining binding at 10 µM (FYN): 100% | remaining binding at 10 µM (YANK2): 84% | remaining binding at 10 µM [1]: 92% | remaining binding at 10 µM (SgK110): 67% | remaining binding at 10 µM (PRKD2): 100% | remaining binding at 10 µM (PRKR): 100% | remaining binding at 10 µM [2]: 100% | remaining binding at 10 µM (CDK11): 81%
